Assay results from patent publication US10213428B2, “(4-((3R,4R)-3-methoxytetrahydro-pyran-4-ylamino)piperidin-1-yl)(5-methyl-6-(((2R,6S)-6-(p-tolyl)tetrahydro-2H-pyran-2-yl)methylamino)pyrimidin-4-yl)methanone citrate” (Centrexion Therapeutics Corporation, priority 2015, dated 2019).
Read-outs that look alike come from different tables or passages of the source.

Legend:
Assay type in all cases: physicochemical
[1] = Dynamic vapour sorption (sorption isotherms, water uptake); conditions: for hygroscopic behavior: uptake of water: 25° C.
From the text: Sorption isotherms were generated using an IGAsorp water sorption monitor from Hiden Isochema. […] For BR salt form only: Sorption isotherms were registered on a DVS-1 water sorption monitor from Surface Measurement Systems.

[2] = X-ray powder diffraction: crystallinity and polymorphism; conditions: for indications for polymorphism: several crystallization experiments
From the text: X-ray powder diagrams were generated using a STOE-STADI P-diffractometer in transmission mode fitted with a MYTHEN-detector and a Cu-anode as X-ray source with monochromatic CuKα1 radiation (λ=1.54056 Å, 40 kV, 40 mA).

[3] = ThermoGravimetry (loss on drying); conditions: TG
From the text: Thermal gravimetry data were collected with a TG instrument from the Q-series of TA Instruments. This method measures weight changes in a material as a function of temperature under a controlled atmosphere.

With `CCS(=O)(=O)O.CO[C@H]1COCC[C@H]1NC1CCN(C(=O)c2ncnc(NC[C@H]3CCC[C@@H](c4ccc(C)cc4)O3)c2C)CC1` [esilate salt of compound I, (4-((3R,4R)-3-methoxytetrahydro-pyran-4-ylamino)piperidin-1-yl)(5-methyl-6-(((2R,6S)-6-(p-tolyl)tetrahydro-2H-pyran-2-yl)methylamino)pyrimidin-4-yl)methanone esilate] the “hygroscopic behavior: uptake of water” value ([1]; up to 80% r.h. (humidity range 10-80%)) was 20%, the “hygroscopic behavior: uptake of water” value ([1]; up to 80% r.h. (humidity range 10-80%), listed as Esilate Salt) was 20% uptake and the “hygroscopic behavior: deliquescence” value ([1]; up to 80% r.h., listed as Esilate Salt) was “deliquescent”. For the same compound, the “hygroscopic behavior: deliquescence” value ([1]; up to 80% r.h., listed as esilate) was “irreversibly deliquescent”, the “hygroscopic behavior: deliquescence” value ([1]; up to 90% r.h.) was “deliquescent” and the “hygroscopic behavior: uptake of water” value ([1]; up to 90% r.h.) was 45% uptake. For the same compound, the crystallinity [2] was “high”, the crystallinity ([2]; listed as esilate salt of compound of formula (I)) was “high crystallinity” and the indications for polymorphism ([2]; listed as Esilate Salt) was “no”. For the same compound, the indications for polymorphism ([2]; listed as esilate) was “only one polymorphic form” and the loss on drying [3] was 2.4%.
In the case of `Br.CO[C@H]1COCC[C@H]1NC1CCN(C(=O)c2ncnc(NC[C@H]3CCC[C@@H](c4ccc(C)cc4)O3)c2C)CC1` [hydrobromide salt of compound I, (4-((3R,4R)-3-methoxytetrahydro-pyran-4-ylamino)piperidin-1-yl)(5-methyl-6-(((2R,6S)-6-(p-tolyl)tetrahydro-2H-pyran-2-yl)methylamino)pyrimidin-4-yl)methanone hydrobromide], the “hygroscopic behavior: uptake of water” value ([1]; up to 80% r.h. (humidity range 10-80%), hydrobromide) is reported as 4.5%, the “hygroscopic behavior: uptake of water” value ([1]; up to 80% r.h. (humidity range 10-80%), listed as Hydrobromide Salt, hydrobromide) is reported as 4.5% and the “hygroscopic behavior: deliquescence” value ([1]; up to 80% r.h., listed as Hydrobromide Salt, hydrobromide) is reported as “deli-”. The “hygroscopic behavior: deliquescence” value ([1]; up to 80% r.h., listed as hydrobromide, hydrobromide) was “irreversibly deliquescent”, the “hygroscopic behavior: deliquescence” value ([1]; up to 90% r.h.) was “deli-” and the “hygroscopic behavior: uptake of water” value ([1]; up to 90% r.h.) was 20%. The crystallinity ([2]; hydrobromide) was “medium”, the crystallinity ([2]; listed as hydrobromide salt of compound of formula (I), hydrobromide) was “medium crystallinity” and the indications for polymorphism ([2]; listed as Hydrobromide Salt, hydrobromide) was “Yes”. The indications for polymorphism ([2]; listed as hydrobromide, hydrobromide) was “Different polymorphic modifications” and the loss on drying [3] was 2.9%.
In the case of `CO[C@H]1COCC[C@H]1NC1CCN(C(=O)c2ncnc(NC[C@H]3CCC[C@@H](c4ccc(C)cc4)O3)c2C)CC1.Cl` [hydrochloride salt of compound I, (4-((3R,4R)-3-methoxytetrahydro-pyran-4-ylamino)piperidin-1-yl)(5-methyl-6-(((2R,6S)-6-(p-tolyl)tetrahydro-2H-pyran-2-yl)methylamino)pyrimidin-4-yl)methanone hydrochloride], the “hygroscopic behavior: uptake of water” value ([1]; up to 80% r.h. (humidity range 10-80%), hydrochloride) is reported as 15%, the “hygroscopic behavior: uptake of water” value ([1]; up to 80% r.h. (humidity range 10-80%), listed as Hydrochloride Salt, hydrochloride) is reported as 15% uptake and the “hygroscopic behavior: deliquescence” value ([1]; up to 80% r.h., listed as Hydrochloride Salt, hydrochloride) is reported as “deliquescent”. For the same compound, the “hygroscopic behavior: deliquescence” value ([1]; up to 80% r.h., listed as hydrochloride, hydrochloride) was “irreversibly deliquescent”, the “hygroscopic behavior: deliquescence” value ([1]; up to 90% r.h.) was “deliquescent” and the “hygroscopic behavior: uptake of water” value ([1]; up to 90% r.h.) was 40% uptake. The crystallinity ([2]; hydrochloride) was “medium”, the crystallinity ([2]; listed as hydrochloride salt of compound of formula (I), hydrochloride) was “medium crystallinity” and the indications for polymorphism ([2]; listed as Hydrochloride Salt, hydrochloride) was “yes”. For the same compound, the indications for polymorphism ([2]; listed as hydrochloride, hydrochloride) was “Different polymorphic modifications” and the loss on drying [3] was 2.8%.
In the case of `CO[C@H]1COCC[C@H]1NC1CCN(C(=O)c2ncnc(NC[C@H]3CCC[C@@H](c4ccc(C)cc4)O3)c2C)CC1.CS(=O)(=O)O` [methanesulfonate salt of compound I, (4-((3R,4R)-3-methoxytetrahydro-pyran-4-ylamino)piperidin-1-yl)(5-methyl-6-(((2R,6S)-6-(p-tolyl)tetrahydro-2H-pyran-2-yl)methylamino)pyrimidin-4-yl)methanone methanesulfonate], the “hygroscopic behavior: deliquescence” value ([1]; up to 80% r.h.) is reported as “irreversibly deliquescent”, the “hygroscopic behavior: uptake of water” value ([1]; up to 80% r.h. (humidity range 10-80%), listed as Methanesulfonate Salt, methanesulfonate) is reported as 30% and the “hygroscopic behavior: uptake of water” value ([1]; up to 80% r.h. (humidity range 10-80%), methanesulfonate) is reported as 30%. The “hygroscopic behavior: uptake of water” value ([1]; up to 90% r.h.) was 45%, the crystallinity ([2]; listed as methanesulfonate salt of compound of formula (I), methanesulfonate) was “medium crystallinity” and the crystallinity ([2]; methanesulfonate) was “Medium”. For the same compound, the indications for polymorphism ([2]; listed as Methanesulfonate Salt, methanesulfonate) was “No” and the indications for polymorphism ([2]; listed as methanesulfonate, methanesulfonate) was “only one polymorphic form”.
